From US11618747B2, “LXR modulators with bicyclic core moiety” (OrsoBio, Inc., priority 2018, dated 2023) come the findings set out here.

Series [1] concerns the target T1, LXRβ ligand-binding domain (Homo sapiens, UniProt P55055, DUP175-175).
T1 construct: amino acids 156-461; NP009052; made in house; host or cells: E. coli
T1 sequence (P55055 with tags, fused parts or gaps DUP175-175 limits assumed): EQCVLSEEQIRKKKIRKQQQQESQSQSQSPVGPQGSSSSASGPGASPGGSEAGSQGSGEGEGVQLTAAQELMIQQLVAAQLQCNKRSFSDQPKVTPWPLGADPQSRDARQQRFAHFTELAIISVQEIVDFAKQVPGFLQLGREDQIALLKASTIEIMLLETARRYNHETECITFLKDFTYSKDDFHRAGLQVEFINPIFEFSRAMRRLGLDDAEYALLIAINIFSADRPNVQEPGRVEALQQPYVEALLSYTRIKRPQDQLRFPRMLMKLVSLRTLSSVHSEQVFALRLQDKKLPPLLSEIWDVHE
In words: TR-FRETβ activity assay (NCoA3 coactivator peptide recruitment). It counts as biochemical. Conditions: TR-FRET, 1 μM 24(S)-25-epoxycholesterol prestimulation; read-out: FRETβ (EC50 range). The gist of the method:
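Inverse agonism assessed by loss of coactivator recruitment, read as TR-FRET 665/615 nm after 1 h equilibration at 4 °C, in triplicate. Ten-point titration from 50 μM to 0.002 μM against LXRβ LBD (76 nM, GST fusion) prestimulated with 1 μM 24(S)-25-epoxycholesterol, with 400 nM NCoA3 peptide, pH 6.8. Sulfonyl acetic acids kept as 20 mM DMSO stocks with 100 mM TFA.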
(In general: In TR-FRET formats the signal depends on donor and acceptor labels being close together.)

A short description of series [2]: Short term HFD mouse model: plasma and liver exposure. Format: in vivo, mice (C57BL/6J). Conditions: HFD mice, 4 h after last dose. How it is done:
Short Term HFD Mouse Model:
The in vivo transcriptional regulation of several LXR target genes by LXR modulators was assessed in mice.
For this, C57BL/6J were purchased from Elevage Janvier (Rennes, France) at the age of 8 weeks. After an acclimation period of two weeks, animals were preferred on a high fat diet (HFD) (Ssniff Spezialdiäten GmbH, Germany, Surwit EF D12330 mod, Cat. No. E15771-34), with 60 kcal % from fat plus 1% (w/w) extra cholesterol (Sigma-Aldrich, St. Louis, Mo.) for 5 days. Animals were maintained on this diet during treatment with LXR modulators. The test compounds were formulated in 0.5% hydroxypropylmethylcellulose (HPMC) and administered in three doses (from 1.5 to 20 mg/kg each) by oral gavage according to the following schedule: on day one, animals received treatment in the morning and the evening (ca. 17:00), on day two animals received the final treatment in the morning after a 4 h fast and were sacrificed 4 h thereafter. Animal work was conducted according to the national guidelines for animal care in Germany.
Upon termination, liver was collected, dipped in ice cold PBS for 30 seconds and cut into appropriate pieces. Pieces were snap frozen in liquid nitrogen and stored at −80° C. For the clinical chemistry analysis from plasma, alanine aminotransferase (ALT, IU/mL), cholesterol (CHOL, mg/dL) and triglycerides (TG, mg/dL) were determined using a fully-automated bench top analyzer (Respons®910, DiaSys Greiner GmbH, Flacht, Germany) with system kits provided by the manufacturer.

The target of the next series is T2, full length (FL) LXRβ (Homo sapiens, UniProt P55055, DUP175-175).
T2 construct: the full length (FL) proteins of LXRα (amino acids 1-447); NP005684; NP009052; expressed in transfected cells; host or cells: HEK293
T2 sequence (P55055 with tags, fused parts or gaps DUP175-175): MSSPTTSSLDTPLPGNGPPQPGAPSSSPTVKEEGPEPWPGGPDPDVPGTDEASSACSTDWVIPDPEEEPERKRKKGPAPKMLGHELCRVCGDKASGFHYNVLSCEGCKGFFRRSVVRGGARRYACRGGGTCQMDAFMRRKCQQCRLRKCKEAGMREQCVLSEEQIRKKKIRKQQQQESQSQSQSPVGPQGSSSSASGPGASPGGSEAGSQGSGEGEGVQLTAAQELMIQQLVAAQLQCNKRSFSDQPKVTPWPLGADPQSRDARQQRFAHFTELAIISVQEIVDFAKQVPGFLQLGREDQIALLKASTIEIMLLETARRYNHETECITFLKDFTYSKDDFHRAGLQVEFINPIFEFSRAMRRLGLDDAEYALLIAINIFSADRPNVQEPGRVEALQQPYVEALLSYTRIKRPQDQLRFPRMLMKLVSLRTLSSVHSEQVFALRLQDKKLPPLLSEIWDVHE
Nature of the series: LXR Gal4 reporter transient transfection assay (FL-M2H Gal4β). To be noted: HEK293 cells, full length LXRβ; read-out: FL-M2H Gal4β (EC50 range). Format: cell-based. The gist of the method:
(§1)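 Luminescence readout: Firefly luciferase driven by GAL4 response elements reports LXR–cofactor interaction, normalised against cotransfected Renilla luciferase. The system used HEK293 cells expressing LXR full length or ligand-binding domain fused to the NFkB activation domain, with SRC1 or NCoR domains on GAL4 DBD; compound exposure was 16 h.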

The target in the next series is T3, full length (FL) LXRα (Homo sapiens, UniProt Q13133).
T3 construct: the full length (FL) proteins of LXRα (amino acids 1-447); NP005684; expressed in transfected cells; host or cells: HEK293
T3 sequence (Q13133 1-447): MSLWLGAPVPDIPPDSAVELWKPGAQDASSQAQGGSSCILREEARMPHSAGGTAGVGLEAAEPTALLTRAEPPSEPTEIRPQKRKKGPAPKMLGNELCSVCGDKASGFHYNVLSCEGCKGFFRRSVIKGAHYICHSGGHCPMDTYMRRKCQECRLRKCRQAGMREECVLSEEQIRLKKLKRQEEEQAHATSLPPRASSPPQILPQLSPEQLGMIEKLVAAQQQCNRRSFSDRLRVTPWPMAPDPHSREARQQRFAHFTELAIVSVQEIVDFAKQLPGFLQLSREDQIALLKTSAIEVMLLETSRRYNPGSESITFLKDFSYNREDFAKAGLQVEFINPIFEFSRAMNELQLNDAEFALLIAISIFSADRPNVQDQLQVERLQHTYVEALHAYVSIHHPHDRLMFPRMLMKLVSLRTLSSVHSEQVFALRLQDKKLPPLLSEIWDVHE
Nature of the series: LXR Gal4 reporter transient transfection assay (FL-M2H Gal4α). It counts as cell-based. To be noted: HEK293 cells, full length LXRα; read-out: FL-M2H Gal4α (EC50 range). The gist of the method: as §1

Some results are limits rather than exact numbers.

With `N#Cc1cccc(C#N)c1-c1c(-c2cccc([C@H]3CC[C@H](C(=O)O)CC3)c2)n(S(=O)(=O)c2ccc(C(F)F)cc2)c2ccc(F)cc12` [11/62], the EC50 in series [1] lay in the range of 0.1 to 1 µM. Also, in series [2] (three oral doses of 10 mg/kg), the “liver exposure 4 h” value is “C (1 μM to ≤10 μM)”, the “liver/plasma ratio 4 h” value is on record as “B (5 to ≤30)” and the “plasma exposure 4 h” value is given as “C (C: 100 nM to <300 nM)”. The EC50 on full length (FL) LXRβ was less than 0.1 µM.

Turning to `CS(=O)(=O)NC(=O)c1ccc(-c2cccc(-c3c(-c4c(C#N)cccc4C#N)c4cc(F)ccc4n3S(=O)(=O)c3ccc(C(F)F)cc3)c2)c(Cl)c1` [32/5], the EC50 in series [1] is less than 0.1 µM. Further, in series [2] (three oral doses of 10 mg/kg), the “liver exposure 4 h” value is listed as “B (300 nM to ≤1 μM)”, the “liver/plasma ratio 4 h” value is reported as “B (5 to ≤30)” and the “plasma exposure 4 h” value is given as “D (D: <100 nM)”. For the same molecule, on full length (FL) LXRβ, the EC50 was less than 0.1 µM.

For `N#Cc1sccc1-c1c(-c2cccc(-c3ccc(C(=O)O)cc3Cl)c2)n(S(=O)(=O)c2ccc(C(F)F)cc2)c2ccc(F)cc12` [11/17], the EC50 in series [1] was less than 0.1 µM. For the same molecule, in series [2] (three oral doses of 20 mg/kg), the “liver exposure 4 h” value was “D (>10 μM)”, the “liver/plasma ratio 4 h” value was “C (30 to ≤100)” and the “plasma exposure 4 h” value is listed as “C (C: 100 nM to <300 nM)”. Also, the EC50 on full length (FL) LXRβ was less than 0.1 µM.

Take `Cc1cccc(C#N)c1-c1c(-c2cccc(-c3ccc(C(=O)O)cc3Cl)c2)n(S(=O)(=O)c2ccc(C(F)F)cc2)c2ccc(F)cc12` (single isomer, unassigned) [41/1, 2-chloro-3′-(3-(2-cyano-6-methylphenyl)-1-((4-(difluoro-methyl)phenyl)sulfonyl)-5-fluoro-1H-indol-2-yl)-[1,1′-biphenyl]-4-carboxylic Acid]: the concentration giving a half-maximal response (EC50) (in series [1]; at full length (FL) LXRα; at full length (FL) LXRβ) was less than 0.1 µM in each case.

On to `Cc1ccc(S(=O)(=O)n2c(-c3cccc(-c4ccc(C(=O)O)cc4Cl)c3)c(-c3cc(C)ccc3C#N)c3cc(F)ccc32)cc1` [11/5], for which the EC50 (in series [1]; on full length (FL) LXRα; at full length (FL) LXRβ) was less than 0.1 µM each time.

As to `Cc1ccc(S(=O)(=O)n2c(-c3cccc(C4(C)CC4C(=O)O)c3)c(-c3ccsc3C#N)c3cc(F)ccc32)cc1` (stereo not drawn) [3/2], the EC50 in series [1] is 1 to 10 µM; at full length (FL) LXRα, 0.1 to 1 µM; at full length (FL) LXRβ it was less than 0.1 µM.

As to `Cc1ccc(S(=O)(=O)n2c(-c3cccc(C4CC4C(=O)O)c3)c(-c3ccsc3C#N)c3ccncc32)cc1` (stereo not drawn) [4/1], the EC50 in series [1] is 1 to 10 µM; on full length (FL) LXRα, 0.1 to 1 µM; on full length (FL) LXRβ it was less than 0.1 µM.

For the molecule `CC(O)(C(=O)O)c1cc(F)c(-c2cccc(-c3c(-c4c(C#N)cccc4C#N)c4cc(F)ccc4n3S(=O)(=O)c3ccc(C(F)F)cc3)c2)c(F)c1` (stereo not drawn) [3/72], the EC50 (in series [1]; at full length (FL) LXRα; at full length (FL) LXRβ) was less than 0.1 µM each time.

As for `Cc1ccc(S(=O)(=O)n2c(-c3cccc(N4CC(C)(C(=O)O)C4)c3)c(-c3ccsc3C#N)c3cc(F)ccc32)cc1` [3/37], the EC50 is 0.1 to 1 µM in series [1], less than 0.1 µM on full length (FL) LXRα and less than 0.1 µM on full length (FL) LXRβ.

As to `O=C(O)c1ccc(-c2cccc(-c3c(-c4cn[nH]c4C(F)(F)F)c4cc(F)ccc4n3S(=O)(=O)c3ccc(C(F)F)cc3)c2)c(Cl)c1` [11/25], the EC50 in series [1] was 0.1 to 1 µM; on full length (FL) LXRα, 0.1 to 1 µM; on full length (FL) LXRβ, less than 0.1 µM.

With `O=C(O)C1CC1c1cccc(-c2c(-c3c(Cl)cccc3Cl)c3cc(F)ccc3n2S(=O)(=O)c2ccc(C(F)F)cc2)c1` (stereo not drawn) [11/69], the EC50 (in series [1]; at full length (FL) LXRα; on full length (FL) LXRβ) was less than 0.1 µM throughout.

`N#Cc1ccccc1-c1c(-c2cccc(-c3ccc(C(=O)O)cc3Cl)c2)n(S(=O)(=O)c2ccc(C(F)F)cc2)c2cccnc12` [8/7]: the results for the half-maximal effective concentration (EC50) (in series [1]; at full length (FL) LXRα; at full length (FL) LXRβ) were 0.1 to 1 µM, 0.1 to 1 µM and less than 0.1 µM, respectively.

Regarding `Cc1ccc(S(=O)(=O)n2c(-c3cccc(N4CC(C(=O)O)C4)c3)c(-c3ccsc3C=O)c3cc(F)ccc32)cc1` [3/5], the EC50 (in series [1]; on full length (FL) LXRα; at full length (FL) LXRβ) was 0.1 to 1 µM throughout.

With `Cc1ccc(S(=O)(=O)n2c(-c3cccc(-c4ccc(CN)cc4Cl)c3)c(-c3ccsc3C#N)c3cc(F)ccc32)cc1` [2/1], the EC50 (in series [1]; at full length (FL) LXRα; on full length (FL) LXRβ) was 0.1 to 1 µM in each case.

As for `N#Cc1cccc(C#N)c1-c1c(-c2cccc(-c3ccc(C(=O)O)cc3F)c2)n(S(=O)(=O)C2CCC(C(F)(F)F)CC2)c2ccc(F)cc12` (stereo not drawn) [11/64], the EC50 in series [1] was 0.1 to 1 µM; on full length (FL) LXRα it was less than 0.1 µM; at full length (FL) LXRβ, less than 0.1 µM.

With `O=C(O)c1ccc(-c2cccc(-c3c(-c4ccsc4C(F)(F)F)c4cc(F)ccc4n3S(=O)(=O)c3ccc(C(F)F)cc3)c2)c(Cl)c1` [11/22], the EC50 (in series [1]; at full length (FL) LXRα; at full length (FL) LXRβ) was less than 0.1 µM throughout.

Regarding `N#Cc1ccccc1-c1c(-c2cccc(-c3ccc(C(=O)O)cc3F)c2)n(S(=O)(=O)c2ccc(C(F)F)cc2)c2ccc(F)cc12` [11/31], the EC50 (in series [1]; on full length (FL) LXRα; at full length (FL) LXRβ) was less than 0.1 µM throughout.

Take `O=C(O)c1ccc(-c2cccc(-c3c(-c4ccsc4C4COC4)c4cc(F)ccc4n3S(=O)(=O)c3ccc(C(F)F)cc3)c2)c(Cl)c1` [3/63]: the EC50 (in series [1]; on full length (FL) LXRα; at full length (FL) LXRβ) was less than 0.1 µM throughout.

As to `Cc1ccc(S(=O)(=O)n2c(-c3cccc(-c4ccc(C(=O)O)c(Cl)c4)c3)c(-c3ccsc3C#N)c3cc(F)ccc32)cc1` [3/49], the EC50 in series [1] was 0.1 to 1 µM; on full length (FL) LXRα, less than 0.1 µM; at full length (FL) LXRβ it was less than 0.1 µM.

In the case of `Cc1ccc(S(=O)(=O)n2c(-c3cccc(C4(C)CC4C(=O)O)c3)c(-c3ccsc3C#N)c3cc(F)ccc32)cc1` (stereo not drawn) [3/1], the EC50 (in series [1]; on full length (FL) LXRα; on full length (FL) LXRβ) was 0.1 to 1 µM each time.

As a reminder, the EC50 is the concentration needed to bring the measured effect to its halfway point.
